# Tested on: S. aureus ATCC 27660
# Test: NCCLS broth microdilution MIC
# Type: cell-based, Staphylococcus aureus
# Conditions: Col. A = S. aureus ATCC 27660 (MRSA)
# Excerpt: (§1) In vitro antibacterial activity data were collected for the following Gram-positive bacteria: Staphylococcus aureus (ATCC 27660, ATCC 33591 and ATCC 43300, all methicillin resistant strains (MRSA's)); Streptococcus pneumoniae (ATCC 51422, a penicillin resistant strain (PRSP)), Enterococcus faecium (ATCC 51559, and/or a vancomycin resistant strain (VRE)). Additionally, antifungal activity data were collected for Candida albicans (ATCC 38247). Minimal inhibition concentrations (MIC's) were determined using the National Committee for Clinical Laboratory Standards (NCCLS) broth microdilution assay in microtiter plates, as set forth in: (1) the guidelines of the National Committee for Clinical Laboratory Standards (NCCLS) Document M7-A4 (NCCLS, 1997); (2) the guidelines of the National Committee for Clinical Laboratory Standards (NCCLS) Document M11-A4 (NCCLS, 1997); and (3) the guidelines and reference method of the National Committee for Clinical Laboratory Standards (NCCLS) Document M27-T (NCCLS, 1995). For antifungal essays, the method recommended in Murray, PR., 1995 Manual of Clinical Microbiology (ASM Press, Washington, D.C.), was employed.
row,SMILES,Minimum Inhibitory Concentration (MIC)
1,Cn1cc(NC(=O)c2sccc2Cl)cc1C(=O)Nc1cc(-c2nc3ccc(C(=O)NCCN4CCOCC4)cc3[nH]2)n(C)c1 [Compound 12],++ (++ = MIC ≦ 1)
2,Cn1cc(NC(=O)c2sc3ccccc3c2Cl)cc1-c1nc2ccc(C(=O)NCCN3CCCCC3)cc2[nH]1 [Compound 18],++ (++ = MIC ≦ 1)
3,Cn1cc(NC(=O)c2sc3ccccc3c2Cl)cc1C(=O)Nc1cc(C(=O)NCCN2CCCCC2)n(CCN2CCOCC2)c1 [Compound 16],++ (++ = MIC ≦ 1)
4,CN(C)CC(C)(C)CNC(=O)CCNC(=O)c1cc(NC(=O)c2cc(NC(=O)CCNC(=O)c3cc(NC(=O)c4cc(NC(=O)c5cc(Br)c(Br)s5)cn4C)cn3C)cn2C)cn1C [Compound 5],++ (++ = MIC ≦ 1)
5,Cn1cc(NC(=O)c2cc(NC(=O)c3cc(NC(=O)c4sccc4Cl)cn3C)cn2C)cc1C(=O)NCCN1CCSCC1 [Compound 11],+ (+ = MIC ≦ 2)

# Tested on: S. aureus ATCC 33591
# Test: NCCLS broth microdilution MIC
# Type: cell-based, Staphylococcus aureus
# Conditions: Col. B = S. aureus ATCC 33591 (MRSA)
# Excerpt: as §1
row,SMILES,Minimum Inhibitory Concentration (MIC)
1,Cn1cc(NC(=O)c2sccc2Cl)cc1C(=O)Nc1cc(-c2nc3ccc(C(=O)NCCN4CCOCC4)cc3[nH]2)n(C)c1 [Compound 12],− (− = MIC > 2)
2,Cn1cc(NC(=O)c2sc3ccccc3c2Cl)cc1-c1nc2ccc(C(=O)NCCN3CCCCC3)cc2[nH]1 [Compound 18],++ (++ = MIC ≦ 1)
3,Cn1cc(NC(=O)c2sc3ccccc3c2Cl)cc1C(=O)Nc1cc(C(=O)NCCN2CCCCC2)n(CCN2CCOCC2)c1 [Compound 16],++ (++ = MIC ≦ 1)
4,CN(C)CC(C)(C)CNC(=O)CCNC(=O)c1cc(NC(=O)c2cc(NC(=O)CCNC(=O)c3cc(NC(=O)c4cc(NC(=O)c5cc(Br)c(Br)s5)cn4C)cn3C)cn2C)cn1C [Compound 5],++ (++ = MIC ≦ 1)
5,Cn1cc(NC(=O)c2cc(NC(=O)c3cc(NC(=O)c4sccc4Cl)cn3C)cn2C)cc1C(=O)NCCN1CCSCC1 [Compound 11],− (− = MIC > 2)

# Tested on: Enterococcus faecium ATCC 51559
# Test: NCCLS broth microdilution MIC
# Type: cell-based
# Conditions: Col. D = E. faecium ATCC 51559 (VRE)
# Excerpt: as §1
row,SMILES,Minimum Inhibitory Concentration (MIC)
1,Cn1cc(NC(=O)c2sccc2Cl)cc1C(=O)Nc1cc(-c2nc3ccc(C(=O)NCCN4CCOCC4)cc3[nH]2)n(C)c1 [Compound 12],++ (++ = MIC ≦ 1)
2,Cn1cc(NC(=O)c2sc3ccccc3c2Cl)cc1-c1nc2ccc(C(=O)NCCN3CCCCC3)cc2[nH]1 [Compound 18],++ (++ = MIC ≦ 1)
3,Cn1cc(NC(=O)c2sc3ccccc3c2Cl)cc1C(=O)Nc1cc(C(=O)NCCN2CCCCC2)n(CCN2CCOCC2)c1 [Compound 16],++ (++ = MIC ≦ 1)
4,CN(C)CC(C)(C)CNC(=O)CCNC(=O)c1cc(NC(=O)c2cc(NC(=O)CCNC(=O)c3cc(NC(=O)c4cc(NC(=O)c5cc(Br)c(Br)s5)cn4C)cn3C)cn2C)cn1C [Compound 5],− (− = MIC > 2)
5,Cn1cc(NC(=O)c2cc(NC(=O)c3cc(NC(=O)c4sccc4Cl)cn3C)cn2C)cc1C(=O)NCCN1CCSCC1 [Compound 11],+ (+ = MIC ≦ 2)

# Tested on: Streptococcus pneumoniae ATCC 51422
# Test: NCCLS broth microdilution MIC
# Type: cell-based
# Conditions: Col. E = S. pneumoniae ATCC 51422 (PRSP)
# Excerpt: as §1
row,SMILES,Minimum Inhibitory Concentration (MIC)
1,Cn1cc(NC(=O)c2sccc2Cl)cc1C(=O)Nc1cc(-c2nc3ccc(C(=O)NCCN4CCOCC4)cc3[nH]2)n(C)c1 [Compound 12],++ (++ = MIC ≦ 1)
2,Cn1cc(NC(=O)c2sc3ccccc3c2Cl)cc1-c1nc2ccc(C(=O)NCCN3CCCCC3)cc2[nH]1 [Compound 18],++ (++ = MIC ≦ 1)
3,Cn1cc(NC(=O)c2sc3ccccc3c2Cl)cc1C(=O)Nc1cc(C(=O)NCCN2CCCCC2)n(CCN2CCOCC2)c1 [Compound 16],++ (++ = MIC ≦ 1)
4,CN(C)CC(C)(C)CNC(=O)CCNC(=O)c1cc(NC(=O)c2cc(NC(=O)CCNC(=O)c3cc(NC(=O)c4cc(NC(=O)c5cc(Br)c(Br)s5)cn4C)cn3C)cn2C)cn1C [Compound 5],++ (++ = MIC ≦ 1)
5,Cn1cc(NC(=O)c2cc(NC(=O)c3cc(NC(=O)c4sccc4Cl)cn3C)cn2C)cc1C(=O)NCCN1CCSCC1 [Compound 11],++ (++ = MIC ≦ 1)

# Tested on: Candida albicans ATCC 38247
# Test: Antifungal MIC
# Type: cell-based
# Conditions: Col. F = C. albicans ATCC 38247
# Excerpt: as §1
row,SMILES,Minimum Inhibitory Concentration (MIC) [µg/mL]
1,Cn1cc(NC(=O)c2sccc2Cl)cc1C(=O)Nc1cc(-c2nc3ccc(C(=O)NCCN4CCOCC4)cc3[nH]2)n(C)c1 [Compound 12],>32
2,Cn1cc(NC(=O)c2sc3ccccc3c2Cl)cc1-c1nc2ccc(C(=O)NCCN3CCCCC3)cc2[nH]1 [Compound 18],>32
3,Cn1cc(NC(=O)c2sc3ccccc3c2Cl)cc1C(=O)Nc1cc(C(=O)NCCN2CCCCC2)n(CCN2CCOCC2)c1 [Compound 16],4
4,CN(C)CC(C)(C)CNC(=O)CCNC(=O)c1cc(NC(=O)c2cc(NC(=O)CCNC(=O)c3cc(NC(=O)c4cc(NC(=O)c5cc(Br)c(Br)s5)cn4C)cn3C)cn2C)cn1C [Compound 5],>32
5,Cn1cc(NC(=O)c2cc(NC(=O)c3cc(NC(=O)c4sccc4Cl)cn3C)cn2C)cc1C(=O)NCCN1CCSCC1 [Compound 11],>32

# Tested on: methicillin resistant Staphylococcus aureus ATCC 33591
# Test: Murine neutropenic thigh model
# Type: in vivo
# Conditions: neutropenic CF1 mice, 50 mg/kg intravenously 2 h post infection, 24 hr after treatment, vehicle 8.03
# Procedure: A S. aureus ATCC 33591 culture was grown to log phase overnight and diluted in phosphate buffered saline (pH 7.2) to an optical density of about 0.1 at 600 nm, giving an approximate concentration of 10^8 cfu/mL. The suspension was diluted 1:100 in phosphate buffered saline (pH 7.2) for a final concentration of 10^6 cfu/mL.
# Outbred female CFI mice (approx. 20 gram body weight) were rendered netutropenic by treatment with cyclophosphamide (200 mg/kg body weight, intraperitoneal injection) at 2 and 4 days prior to inoculation. Groups of 5 mice were inoculated with 0.05 mL of the bacteria (approx. 10^6 cfu/mL) into the anterior thigh. Each group was treated intravenously two hours post infection with vehicle (phosphate buffered saline) or test compound. The mice were sacrificed at either 6 or 24 hrs after treatment and thighs were collected aseptically. Each thigh was weighed, placed into sterile saline, and homogenized. The tissue homogenates were diluted appropriately for plating on agar plates. Colony counts were recorded (cfu/gram) and compared to control groups.
row,SMILES,Colony Count [log cfu/gram]
1,Cn1cc(NC(=O)c2sccc2Cl)cc1C(=O)Nc1cc(-c2nc3ccc(C(=O)NCCN4CCOCC4)cc3[nH]2)n(C)c1 [Compound 12],6.96

# Target: target sequence AATTAATCAT (352 bp fragment, Plasmid C)
# Test: Quantitative DNase I footprint titration
# Type: binding
# Conditions: 352 bp C, 22° C., pH 7.0, read-out: Dissociation Constant Kd
# Excerpt: (§2) Compounds (1) through (20) according to this invention were screened for their ability to bind to specified DNA target sequences, using DNase I footprinting. Generally, the procedure described in Dervan, WO 98/50582 (1998), was followed.
# (§3) Three double stranded circular plasmids A, B, and C were used to prepare double stranded DNA-binding probes containing the target sequences for the DNase I footprint titration experiments. Plasmids A, B, and C had nucleotide sequences given by SEQ ID NO. I, SEQ ID NO. II, and SEQ ID NO. III, respectively.
# (§4) The 3′-P32 end-labeled EcoRI/PvuII fragments from each plasmid were prepared by digesting the plasmids with EcoRI and PvuII with simultaneous fill-in using Sequenase v. 2.0, [alpha-P32]-deoxyadenosine-5′-triphosphate, and [alpha-P32]-thymidine-5′-triphosphate, and isolating the cloned fragments by nondenaturing gel electrophoresis. A and G sequencing reactions were carried out as described (See Maxam and Gilbert, Methods Enzymol., 1980, 65, 499-560; Iverson and Dervan, Methods Enzymol., 1987, 15, 7823-7830; Sambrook et al., 1989, Molecular Cloning, 2nd ed., Cold Spring Harbor Laboratory Press: Cold Spring Harbor, N.Y.) Standard methods were used for all DNA manipulations (Sambrook et al., ibid.) The cut sites for EcoRI and PvuII are indicated by bars in the respective maps of Plasmids A, B, and C in FIGS. 5, 6, and 7.
# (§5) The 351 base pair dsDNA restriction fragment (SEQ ID NO. IV) of Plasmid A contained the target sequences AAAAAGCAAAAA, AAAAAGACAAAAA, and AAAAAGTACAAAAA. The 310 base pair dsDNA restriction fragment (SEQ ID NO. V) of Plasmid B contained the target sequences AGTACT, AATACT, and ATTACT. The 352 base pair dsDNA restriction fragment (SEQ ID NO. VI) of Plasmid C contained the target sequences TGACAATTAAT, GACAATTAATCA, AATTAATCAT, ACAATTA, and ACAATTAAT. These fragments were used for quantitative DNase I footprinting experiments. Compounds used in the method of this invention bind to at least one of the target sites with a equal to or less than 100 nM, preferably equal to or less than 50 nM, and more preferably equal to or less than 20 nM. The target sequences were selected for the identity with, or similarity to, promoter sites for bacterial genes.
# (§6) Quantitative DNase I footprint titration experiments were carried out as described previously (Dervan, WO 98/50582, 1998) with the following changes. All reactions were carried out in a total volume of 400 μL, with compound stock solution or water added to 15,000 cpm radiolabeled restriction fragment affording final solution conditions of 10 mM Tris HCl, 10 mM KCl, 10 mM MgCl2, 5 mM CaCl2, pH 7.0 and 0.01 nM, 0.1 nM, 1.0 nM, 10.0 nM compound or no compound for reference lanes. The compounds were allowed to equilbrate at 22° C. for 16 h. Footprinting reactions were initiated with addition of 10 μL of a DNase I stock solution (at the appropriate concentration to give ˜50% intact DNA) containing 1 mM DTT and allowed to proceed for 7 min at 22° C. The reactions were stopped, ethanol precipitated, resuspended in loading buffer, heat denatured, and placed on ice as described previously (Dervan WO 98/50582, 1998). The reaction products were separated on a precast 8% polyacrylamide denaturing sequencing Castaway gel with 32 preformed wells from Stratagene in 1×TBE at 2000 V. Gels were dried according to the manufacturer and exposed to a storage phosphor screen (Molecular Dynamics). Quantitation and data analysis were carried out as described in Dervan, WO 98/50582, 1998.
row,SMILES,Kd [nM]
1,Cn1cc(NC(=O)c2sc3ccccc3c2Cl)cc1-c1nc2ccc(C(=O)NCCN3CCCCC3)cc2[nH]1 [Compound 18],5
2,Cn1cc(NC(=O)c2sc3ccccc3c2Cl)cc1C(=O)Nc1cc(C(=O)NCCN2CCCCC2)n(CCN2CCOCC2)c1 [Compound 16],10

# Target: target sequence GACAATTAATCA (352 bp fragment, Plasmid C)
# Test: Quantitative DNase I footprint titration
# Type: binding
# Conditions: 352 bp C, 22° C., pH 7.0, read-out: Dissociation Constant Kd
# Excerpt: as §2, §3, §4, §5, §6
row,Kd [nM],SMILES
1,≤ 0.1,Cn1cc(NC(=O)c2sccc2Cl)cc1C(=O)Nc1cc(-c2nc3ccc(C(=O)NCCN4CCOCC4)cc3[nH]2)n(C)c1 [Compound 12]
2,≤ 1,Cn1cc(NC(=O)c2cc(NC(=O)c3cc(NC(=O)c4sccc4Cl)cn3C)cn2C)cc1C(=O)NCCN1CCSCC1 [Compound 11]

row,SMILES,Kd [nM]
1,CN(C)CC(C)(C)CNC(=O)CCNC(=O)c1cc(NC(=O)c2cc(NC(=O)CCNC(=O)c3cc(NC(=O)c4cc(NC(=O)c5cc(Br)c(Br)s5)cn4C)cn3C)cn2C)cn1C [Compound 5],2

# Target: target sequence […] (351 bp fragment, Plasmid A)
# Test: Quantitative DNase I footprint titration
# Type: binding
# Conditions: AAAAAGTACAAAAA, 351 bp A; 22° C., pH 7.0; read-out: Dissociation Constant Kd
# Excerpt: as §2, §3, §4, §5, §6
row,SMILES,Kd [nM]
1,CN(C)CC(C)(C)CNC(=O)CCNC(=O)c1cc(NC(=O)c2cc(NC(=O)CCNC(=O)c3cc(NC(=O)c4cc(NC(=O)c5cc(Br)c(Br)s5)cn4C)cn3C)cn2C)cn1C [Compound 5],0.01

# Reference: patent publication US20030199516A1, “Methods of treating infection by drug resistant bacteria” (Genesoft, Inc., priority 2001, published 2003)
